# Patent publication US20230414581A1, “SARM1 ENZYME ACTIVITY INHIBITOR AND USE THEREOF IN NEURODEGENERATIVE DISEASES” (ARTIVILA BIOPHARMA, priority 2020, published 2023)
# Legend:
# dN-SARM1 [1] = molecular target: T1, dN-SARM1 (Homo sapiens (Human), UniProt Q6SZW1); experiment: In vitro biochemical test of inhibiting SARM1 enzyme activity (% inhibition rate), PC6 fluorescence method; conditions: 50 μM compound; 0.05 μg/ml dN-SARM1; 50 μM NAD, 50 μM PC6, 50 μM NMN activator; 30 min room temperature
# Method: The compounds were detected by PC6 fluorescence method [Chinese patent 202010528147.3] with the dN-SARM1 protein obtained in “Expression and purification of SARM1 protein” and “(4) Protein extraction” in Example 4 above.
# First, 0.05 μg/ml dN-SARM1 and 50 μM compound were incubated in 50 mM Tris-HCl (pH 7.5) solution for 10 min. Then 50 μM NAD, 50 μM PC6 as substrate and 50 μM NMN as activator were added to the dN-SARM1 protein incubated with the drug for 30 min of reaction at room temperature. The concentration of each component was the final concentration in the reaction system.
# (§1) During the reaction process, PC6 fluorescence spectrum kinetics was detected by a microplate reader at an excitation wavelength and an emission wavelength of 390 nm and 520 nm, respectively. Finally, the activity of the protein was denoted by the reaction rate. The higher the reaction rate, the stronger the protein activity, and the lower the inhibition efficiency of the compound.
# dN-SARM1 [2] = molecular target: T1, dN-SARM1; experiment: In vitro biochemical test of inhibiting SARM1 enzyme activity (IC50), PC6 fluorescence method; conditions: dN-SARM1 0.05 μg/ml; 50 μM NAD, 50 μM PC6, 50 μM NMN activator; 10 min pre-incubation
# Method: First, 200 μM of the compound was added to a 50 mM Tris-HCl (pH 7.5) solution containing 0.05 μg/ml dN-SARM1. Then half of the mixture was added to an equal volume of 50 mM Tris-HCl (pH 7.5) solution containing 0.05 μg/ml dN-SARM1 (pH 7.5) for mixing. The drug was diluted 6 times by analogy to final concentrations of 200, 100, 50, 25, 12.5, 6.25, 3.125 μM, or 200, 50, 12.5, 3.125, 0.78, 0.195, 0.049 μM. The solution without addition of inhibitor was control group. The above solutions were incubated at room temperature for 10 min.
# Then 50 μM NAD, 50 μM PC6 as substrate and 50 μM NMN as activator were added to the dN-SARM1 protein incubated with inhibitor for 30 min of reaction at room temperature. The concentration of each component was the final concentration in the reaction system.
# as §1, with “rate, and the half-inhibition concentration was calculated.” for “rate.”
# [3] = molecular target: SARM1 in iSARM1 (HEK293) cells (Homo sapiens (Human), UniProt Q6SZW1); experiment: Inhibition of SARM1 activity in cell line with inducible overexpression of SARM1 (intracellular cADPR level); format: cell-based; conditions: 50 μM inhibitor, 100 μM CZ-48 activator, 16 h, cADPR content
# Method: Firstly, a 96-well culture dish was treated with 0.05 mg/ml polylysine for 5 min, and washed once with PBS. 3×10^4 iSARM1 (HEK293) cells were plated into the 96-well plate and cultured in a 37° C. and 5% incubator overnight. The next day, the cells were added with an inhibitor with a final concentration of 50 μM, cultured in the incubator for 1.5 h, then added with the activator CZ-48 with a final concentration of 100 μM, and co-cultured for 16 h. In addition, a control group without addition of CZ-48 or drug was set up. Finally, the intracellular cADPR level was detected to denote the activity of SARM1, and the inhibition rate of SARM1 by 50 μM inhibitor in cells was calculated.
# The cADPR assay was conducted as follows. First, the cells were washed once with PBS, and added with 150 μl of pre-cooled 0.6M perchloric acid (PCA) for rapid lysis of the cells and precipitation of proteins. […]
# The content of cADPR in the solution was determined by Cycling analysis, which was operated as follows. […] Each well of the 96-well plate was added with the reaction solution containing or not containing cyclase for reaction, and the reaction kinetic curve within 30 min (Ex:Em=544/599) was recorded. The average slope of the reaction was calculated, and the accurate cADPR content was calculated by converting the cADPR standard. […]
# T1 sequence (Q6SZW1 28-724): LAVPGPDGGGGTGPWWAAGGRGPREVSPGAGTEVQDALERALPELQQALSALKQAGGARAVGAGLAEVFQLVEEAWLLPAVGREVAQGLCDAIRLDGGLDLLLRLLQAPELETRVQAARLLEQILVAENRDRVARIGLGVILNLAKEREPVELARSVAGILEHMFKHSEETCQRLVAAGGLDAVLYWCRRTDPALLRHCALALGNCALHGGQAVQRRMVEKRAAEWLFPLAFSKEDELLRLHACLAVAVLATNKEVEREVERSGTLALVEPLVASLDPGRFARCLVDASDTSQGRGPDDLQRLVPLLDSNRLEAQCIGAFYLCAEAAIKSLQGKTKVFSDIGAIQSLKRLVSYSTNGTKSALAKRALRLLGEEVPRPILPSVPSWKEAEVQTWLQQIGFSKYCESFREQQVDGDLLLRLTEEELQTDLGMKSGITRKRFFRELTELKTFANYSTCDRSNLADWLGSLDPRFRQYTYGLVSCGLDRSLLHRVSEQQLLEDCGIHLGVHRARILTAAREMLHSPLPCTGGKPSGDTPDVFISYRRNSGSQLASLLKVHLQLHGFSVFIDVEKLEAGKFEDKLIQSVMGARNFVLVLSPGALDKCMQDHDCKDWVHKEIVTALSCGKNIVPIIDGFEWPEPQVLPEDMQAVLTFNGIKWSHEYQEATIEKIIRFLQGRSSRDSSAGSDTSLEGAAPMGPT
# SARM1 in iSARM1 (HEK293) cells, sequence (Q6SZW1 28-724): as above
SMILES,Inhibition rate of enzyme activity (dN-SARM1 [1]) [%],IC50 (dN-SARM1 [2]) [nM],Inhibition rate [3]
N#Cc1c(Cl)cc(Cl)cc1Sc1cc(Cl)cc(Cl)c1O [Compound 36],98.5,> 10000,–
CCn1c(=O)/c(=C2\Sc3ccccc3N2C)s/c1=C\c1cccc[n+]1CC [Compound 39],–,1000 to 10000,–
Oc1cc(Cl)ccc1Oc1ccc(Cl)cc1Cl [Compound 35],102,> 10000,–
O=C(CCCCCCC(=O)Nc1ccccc1)NO [Compound 40],75.6,–,–
N#Cc1ccc(Cl)cc1Cc1cc(Cl)ccc1C#N [Compound 32],93.7,> 10000,–
O=C(C=Cc1cccc(S(=O)(=O)Nc2ccccc2)c1)NO [Compound 42],67.4,–,–
CC(C)c1ccc(-n2c(=O)sn(-c3ccc(SC(F)(F)F)cc3)c2=O)cc1 [Compound 8],–,1000 to 10000,–
O=C(/C=C/c1ccc(CNCCc2c(O)[nH]c3ccccc23)cc1)NO [Compound 41],67.3,–,–
O=C(CCCCCCNC(=O)c1cnc(N(c2ccccc2)c2ccccc2)nc1)NO [Compound 43],85.3,> 10000,–
Cc1cccc(Cl)c1-n1sc(=O)n(CC2CC2)c1=O [Compound 4],–,< 1000,–

# Other lines, results leading:
Inhibition rate of enzyme activity (dN-SARM1 [1]) [%],IC50 (dN-SARM1 [2]) [nM],Inhibition rate [3],SMILES
–,< 1000,–,Cn1sc(=O)n(Cc2ccccc2)c1=O [Compound 1]
101,< 1000,–,CCN(CC)C(=S)SSC(=S)N(CC)CC [Compound 37]
–,< 1000,B (B: 25-50%),O=c1sn(-c2ccccc2C(F)(F)F)c(=O)n1CC1CC1 [Compound 2]
–,< 1000,–,Cn1c(=O)sn(-c2cccc3ccccc23)c1=O [Compound 3]
–,< 1000,–,Cc1ccc(-n2sc(=O)n(Cc3ccc(F)cc3)c2=O)cc1 [Compound 6]
98.6,< 1000,–,O=c1sn(-c2cccc3ccccc23)c(=O)n1Cc1ccccc1 [Compound 7]
